# Results taken from patent publication US4861778A, “2,3-dihydrophthalazine-1,4-diones” (priority 1986, dated 1989).
# Where two headings read alike, the source gives them in different places.
# System: serum cholesterol and serum triglyceride
# Test: Hypolipidemic activity of 2,3-dihydrophthalazine-1,4-diones in normal male mice (Example 11, Table II)
# Type: in vivo, CF1 male mice
# Details: Mus musculus, ip
# Experimental: Hypolipidemic Activity of 2,3-Dihydrophthalazine-1,4-Diones in Normal Male Mice
# Each of the prepared compounds was administered intraperitoneally, in a dosage of 20 milligrams per kilogram of body weight per day, to a group of six CF1 male mice, each weighing approximately 25 grams, for 16 days. On Days 9 and 16 blood was obtained from each of the tested mice by tail vein bleeding. The blood serum so obtained was separated by centrifugation for three minutes. […] Serum triglyceride levels were obtained on Day 16 by use of the Bio-Dynamics/bm Triglyceride Kit.
# In addition to the above-described treated mice, an untreated control group of six mice were similarly tested on Days 9 and 16 to determine their serum cholesterol and serum triglyceride blood levels.
# [1] = 216 h, CF1 male mice, 20 mg/kg/day intraperitoneally, Day 9, read-out: Serum Cholesterol Day 9, percent control ± standard deviation
# [2] = 384 h, CF1 male mice, 20 mg/kg/day intraperitoneally, Day 16, read-out: Serum Cholesterol Day 16, percent control ± standard deviation
# [3] = 384 h, CF1 male mice, 20 mg/kg/day intraperitoneally, Day 16, read-out: Serum Triglyceride Day 16, percent control ± standard deviation
Structure (SMILES),response vs control in vivo at 20 mg/kg/day [1] [%],response vs control in vivo at 20 mg/kg/day [2] [%],response vs control in vivo at 20 mg/kg/day [3] [%],"response vs control in vivo at 20 mg/kg/day (216 h, read-out: Serum Cholesterol Day 9, percent control ± standard deviation) [%]","response vs control in vivo at 20 mg/kg/day (384 h, read-out: Serum Cholesterol Day 16, percent control ± standard deviation) [%]","response vs control in vivo at 20 mg/kg/day (384 h, read-out: Serum Triglyceride Day 16, percent control ± standard deviation) [%]"
CCCCOc1nn(CCCC)c(=O)c2ccccc12 [Compound 9],65 ± 4,61 ± 3,66 ± 3,–,–,–
"COc1nn(C)c(=O)c2ccccc12 [Compound 3, 2-Methyl-4-Methoxyphthalazine-1(2H)-One]",84 ± 6,81 ± 5,64 ± 5,–,–,–
Cn1nc(O)c2ccccc2c1=O [Compound 2],72 ± 5,77 ± 3,66 ± 4,–,–,–
"CCn1[nH]c(=O)c2ccccc2c1=O [Compound 4, 2-Ethyl-2,3-Dihydrophthalazine-1,4-Dione]",71 ± 7,58 ± 5,59 ± 4,–,–,–
"O=c1[nH][nH]c(=O)c2c(Cl)cccc12 [Compound 12, 5-Chloro-2,3-Dihydrophthalazine-1,4-Dione]",72 ± 5,69 ± 4,86 ± 5,–,–,–
Cc1ccccc1-n1nc(O)c2ccccc2c1=O [Compound 25],82 ± 7,66 ± 5,76 ± 6,–,–,–
CCCOc1nn(CCC)c(=O)c2ccccc12 [Compound 7],68 ± 3,69 ± 5,69 ± 2,–,–,–
Cc1cccc2c(=O)[nH]nc(O)c12 [Compound 14],80 ± 4,75 ± 3,73 ± 3,–,–,–
COc1ccc2c(=O)[nH]nc(O)c2c1 [Compound 17],77 ± 5,76 ± 4,69 ± 3,–,–,–
Cc1ccc(-n2nc(O)c3ccccc3c2=O)cc1 [Compound 27],89 ± 5,73 ± 6,57 ± 2,–,–,–
Cc1cccc(-n2nc(O)c3ccccc3c2=O)c1 [Compound 26],87 ± 6,74 ± 4,65 ± 3,–,–,–
"CCOC(=O)Cn1[nH]c(=O)c2ccccc2c1=O [Compound 19, 2-(1'-Carbethoxymethyl)-2,3-Dihydrophthalazine-1,4-Dione]",78 ± 6,69 ± 5,73 ± 4,–,–,–
CCOc1nn(CC)c(=O)c2ccccc12 [Compound 5],77 ± 5,76 ± 4,57 ± 3,–,–,–
CCCCCn1nc(O)c2ccccc2c1=O [Compound 10],74 ± 3,71 ± 5,55 ± 4,–,–,–
O=c1c2ccccc2c(O)nn1-c1cccc(Cl)c1 [Compound 23],73 ± 4,62 ± 3,69 ± 5,–,–,–
O=c1[nH]nc(O)c2cc(Cl)ccc12 [Compound 13],72 ± 4,64 ± 5,65 ± 4,–,–,–
CCCCCOc1nn(CCCCC)c(=O)c2ccccc12 [Compound 11],86 ± 6,63 ± 4,59 ± 3,–,–,–
COc1cccc2c(=O)[nH]nc(O)c12 [Compound 16],82 ± 5,78 ± 3,81 ± 4,–,–,–
"CC(=O)CCn1[nH]c(=O)c2ccccc2c1=O [Compound 20, 2-(3'-Oxobutyl)-2,3-Dihydrophthalazine-1,4-Dione]",72 ± 6,59 ± 3,70 ± 7,–,–,–
"O=c1[nH]n(-c2ccc(Cl)cc2)c(=O)c2ccccc12 [Compound 24, 2-(4'-chlorophenyl)-2,3-dihydrophthalazine-1,4-dione]",60 ± 3,54 ± 4,59 ± 5,–,–,–
"CCCn1[nH]c(=O)c2ccccc2c1=O [Compound 6, 2-n-propyl-2,3-dihydrophthalazine-1,4-dione]",77 ± 6,68 ± 5,62 ± 2,–,–,–
"O=C(O)CCn1[nH]c(=O)c2ccccc2c1=O [Compound 18, 2-(2'-Carboxyethyl)-2,3-Dihydrophthalazine-1,4-Dione]",54 ± 6,34 ± 3,60 ± 4,–,–,–
"CCCCn1[nH]c(=O)c2ccccc2c1=O [Compound 8, 2-n-butyl-2,3-dihydrophthalazine-1,4-dione]",59 ± 2,58 ± 3,73 ± 4,–,–,–
"O=c1[nH]n(-c2ccccc2)c(=O)c2ccccc12 [Compound 21, 2-Phenyl-2,3-Dihydrophthalazine-1,4-Dione]",–,–,–,59 ± 5,58 ± 4,65 ± 3
O=c1c2ccccc2c(O)nn1-c1ccccc1Cl [Compound 22],72 ± 5,67 ± 3,68 ± 4,–,–,–
"Cc1ccc2c(=O)[nH][nH]c(=O)c2c1 [Compound 15, 6-methyl-2,3-dihydrophthalazine-1,4-dione]",66 ± 8,55 ± 4,54 ± 4,–,–,–
